According to the SangsterLogP compilation:

Test: method code SF, from DOI: 10.1016/j.ejps.2012.10.019, PMID: 23131797

logD (pH 5.0) | SMILES | other results
5.08 | Cc1ccc(SCC(=O)NCc2cccc(CNC(=O)CSc3ccc(C)cc3)c2)cc1 | –
2.69 | CCCC(=O)N1CC2(C)CN(C(=O)CCC)CC(C)(C1)C2 | –
3.45 | CN(C(=O)c1c(F)c(F)c(F)c(F)c1F)C(C)(C)C | –
4 | COc1ccc(CCNC(=O)CSc2nc3c(c(=O)n(C)c(=O)n3C)n2Cc2ccccc2F)cc1OC | –
3.63 | CCOC(=O)c1c(C)[nH]c(C)c1C(=O)COC(=O)c1ccc(F)c(S(=O)(=O)N2CCOCC2)c1 | –
– | C=C(c1ccc(N(C)C)cc1)c1ccc(N(C)C)cc1 | logD (pH 7.3): 5.3
4.98 | O=C(OCC(=O)N1CCC(Cc2ccccc2)CC1)C1CCCCC1 | –
– | O=C(c1cccc([N+](=O)[O-])c1)N(Cc1ccccc1F)N1C(=O)c2ccccc2C1=O | logD (pH 6.5): 4.47
5.09 | COc1cccc2c1N(C(=O)CC(C)C)C(C)(C)c1ssc(=S)c1-2 | –
3.78 | CC(C)NC(=O)COC(=O)c1ccc(S(=O)(=O)N2CCCCCC2)cc1 | –
– | O=C(Nc1ccc(N2CCN(C(=O)c3ccco3)CC2)c(Cl)c1)c1c(F)c(F)c(F)c(F)c1F | logD (pH 6.5): 5.85
– | CN1C(=CC=CC(=O)C(F)(F)F)C(C)(C)c2ccccc21 | logD (pH 6.5): 4.41
– | CCOC(=O)c1sc(NCCNc2nc(C)c(C(=O)OCC)s2)nc1C | logD (pH 10.5): 4.66
– | CCn1cc(C2C3=C(CC(C)(C)CC3=O)N(c3ccc(C)cc3)C3=C2C(=O)CC(C)(C)C3)c(C)n1 | logD (pH 10.5): 5.35
5.58 | Cc1ccc(N(CCOC(=O)c2ccc(S(=O)(=O)N3CCCCC3)cc2)C2=NS(=O)(=O)c3ccccc32)cc1 | –
4.85 | Nn1c(SCC(=O)Nc2ccccc2-c2ccccc2)nnc1-c1ccc(OC(F)F)cc1 | –
5.16 | O=C(COc1ccc(C(F)(F)F)cc1[N+](=O)[O-])Nc1ccccc1Br | –
2.46 | COC(=O)/C=C/CN1C(=O)c2ccccc2C1=O | –
4.1 | CCCN(CC1CC1)C(=S)Nc1cc([N+](=O)[O-])ccc1Cl | –
4.73 | CCOc1ccccc1OCC(=O)Nc1ccc2ccccc2c1 | –
– | N#Cc1nc(N2CCCC2)nc(N(c2ccccc2)c2ccccc2)n1 | logD (pH 6.5): 5.38
4.09 | O=C(OCC(=O)N1CCCC1)c1c2ccccc2cc2ccccc12 | –
– | n1onc2c1NC1Nc3nonc3NC1N2 (stereo unspecified) | logD (pH 7.3): 0.3
– | COc1cccc(NC(=O)CSc2nnc3ccccn23)c1 | logD (pH 7.3): 2.45
2.64 | Cc1cc2nsnc2c([N+](=O)[O-])c1C | –
– | CCN(CC)C(=O)c1sc(NC(=O)c2cc(OC)cc(OC)c2)c(C(=O)OC)c1C | logD (pH 6.5): 5.47
4.82 | Cc1cccc(C)c1NC(=O)CSc1nnnn1-c1ccc(OC(F)(F)F)cc1 | –

logD (pH 5.0) | SMILES | other results
1.81 | c1ccc2c(c1)OCCOCCOCCO2 | –
2 | COCCCNC(=O)c1ccccc1C(F)(F)F | –
2.76 | COc1ccc(OCC(=O)N2CCN(C(=O)c3ccco3)CC2)cc1 | –
4.15 | COc1ccc(C)cc1-n1nnnc1SCC(=O)Nc1cc(C(N)=O)cc(C(N)=O)c1 | –
2.55 | O=C(Nc1ccccc1C(F)(F)F)C1CCC1 | –
– | CC1CCCC(C)N1C(=O)CSc1nnc(-c2ccco2)n1Cc1ccccc1 (stereo unspecified) | logD (pH 7.3): 4.49
– | Cc1ccccc1N1C(=O)c2ccc(C(=O)OCC(=O)c3c(N)n(C)c(=O)n(C)c3=O)cc2C1=O | logD (pH 10.5): 4.55
3.57 | CC(=O)Nc1cccc(C(=O)OCC(=O)c2c(N)n(C)c(=O)n(C)c2=O)c1 | –
4.63 | CC(Sc1nc2ccccc2c(=O)n1-c1ccc(F)cc1)C(=O)NCc1ccc2c(c1)OCO2 (stereo unspecified) | –
2.82 | CCCn1c(=O)c(Br)cn(-c2ccccc2C)c1=O | –
2.73 | CC12CCCC(C(N)=O)(CCC1)C2 | –
– | CC(C)=CC(=O)OCC(=O)Nc1ccc(S(=O)(=O)N(C)C)cc1 | logD (pH 2.0): 2.26
4.33 | CCOc1ccc(NC(=O)CSc2nc3ccsc3c(=O)n2-c2ccccc2)cc1 | –
– | COC(=O)c1sc(N)nc1C | logD (pH 7.3): 1.48
3.6 | CCC(CC)NC(=O)c1ccc(Cl)c(S(=O)(=O)N2CCCC2)c1 | –
– | Cc1ccc2c(C)nc(Nc3nc4c(c(=O)[nH]3)CCCC4)nc2c1 | logD (pH 10.0): 3.92
– | Cc1nc(-c2ccc(Cl)cc2)cs1 | logD (pH 7.3): 3.65
3.11 | CSc1sc(C(=O)N2CCOCC2)c2c1S(=O)(=O)N(C)c1ccccc1-2 | –
4.24 | COc1ccc(C=O)cc1COc1c(F)c(F)cc(F)c1F | –
– | Cc1ccc(C(=O)NCCc2ccc3c(c2)OCCO3)cc1[N+](=O)[O-] | logD (pH 2.0): 3.28
4.14 | Cc1cccc(C(=O)Nc2ccc(NC(=O)c3ccccc3)c(C)c2)c1 | –
– | NC(=O)CSc1nc2c(c(=O)n1Cc1ccco1)C1(CCCCC1)Cc1ccccc1-2 | logD (pH 7.3): 5.45
5.43 | COc1cccc(OCCn2c(=O)c3cc4c(=O)n(CCOc5cccc(OC)c5)c(=O)c4cc3c2=O)c1 | –
4.33 | Clc1ccc(CSc2ncccn2)cc1Cl | –
– | COC(=O)c1c(NC(NC(=O)c2cccnc2)(C(F)(F)F)C(F)(F)F)sc2c1CCCCC2 | logD (pH 6.5): 5.75
5.13 | CC(=O)Oc1cccc(N2C(=O)c3ccc(C(=O)c4ccc5c(c4)C(=O)N(c4cccc(OC(C)=O)c4)C5=O)cc3C2=O)c1 | –
– | c1nc(NC2CCCC2)c2c3c(sc2n1)CCCC3 | logD (pH 10.0): 4.17

logD (pH 5.0) | SMILES | other results
5.6 | N#Cc1c(SCC(=O)OCc2ccccc2)nsc1SCC(=O)OCc1ccccc1 | –
– | COCCn1c(C)cc(C(=O)CSc2ncnc3sc(C)c(C)c23)c1C | logD (pH 6.5): 4.59
2.31 | O=C(CSc1nnc(-c2cccs2)o1)NCCN1C(=O)CSC1=O | –
– | CCNc1nc(NC(C)C)nc(Oc2ccc(OCC)nn2)n1 | logD (pH 10.5): 3.14
– | COCCCNC(=O)c1cc(Br)c(C)c(C)c1C | logD (pH 10.5): 2.93
5.31 | NC(=O)C1CCN(C(=O)c2ccc3c(=O)n(Cc4ccco4)c(SCC(=O)c4ccccc4)nc3c2)CC1 | –
4.92 | O=C1CCCC2=C1C(c1ccc(OCc3ccccc3F)cc1)C1=C(CCCC1=O)O2 | –
2.68 | N#CCc1nc(-c2ccc3c(c2)OCCCO3)cs1 | –
5.04 | COC(=O)C1=C(C)NC(C)=C(C(=O)OC)C1c1cn(-c2ccccc2)nc1-c1cccc([N+](=O)[O-])c1 | –
– | Cc1ccc(OCCC(=O)N2CCN(S(=O)(=O)c3cccs3)CC2)cc1 | logD (pH 2.0): 2.98
4.28 | CCCCCC(=O)NC1(CCC)CCCC1 | –
3.39 | COC(=O)c1cccc(NC(=O)CCN2C(=O)c3ccccc3C2=O)c1 | –
3.8 | CCOC(=O)CSc1nnnn1-c1cccc2ccccc12 | –
– | O=C(CC1Nc2ccccc2NC1=O)Nc1ccccc1NC(=O)CC1Nc2ccccc2NC1=O (stereo unspecified) | logD (pH 6.5): 3.42
3.19 | O=C1c2ccc(-c3ccc4c(c3)C(=O)N(CCO)C4=O)cc2C(=O)N1CCO | –
4.77 | COC(=O)c1ccc(-n2c(C)cc(C(=O)COc3cccc(-n4cnnn4)c3)c2C)cc1 | –
– | COC(=O)c1cc(OC)c(OC)cc1NC(=O)CSc1nncn1C | logD (pH 7.3): 2.78
– | COc1ccc(NC(=O)c2sc3sc(C(=O)Nc4ccc(OC)c(OC)c4)c(N)c3c2N)cc1OC | logD (pH 10.0): 4.88
– | Cn1c(SCC(=O)NC2CCCCCC2)nnc1-c1ccc(Cl)cc1 | logD (pH 7.3): 4.21
– | CC(=O)Nc1nc2cc3sc(NC(C)=O)nc3cc2s1 | logD (pH 6.5): 3.13
– | Cn1c(N)c(C(=O)COC(=O)C2CC2)c(=O)n(C)c1=O | logD (pH 10.0): 2.17
4.46 | O=C(Nc1ccc(S(=O)(=O)c2ccc(NC(=O)c3cccs3)cc2)cc1)c1cccs1 | –
2.93 | CC1=CC(C)C(CO)(CO)C(C)C1 (stereo unspecified) | –
3.69 | Cc1ccc(S(=O)(=O)N(CCO)Cc2ccccc2)cc1 | –
– | CC(C)N(C(=O)CSc1nnc(NCc2ccccc2)s1)C(C)C | logD (pH 7.3): 4.09
4.62 | O=C(Cn1cc(C(=O)C(F)(F)F)c2cc(Br)ccc21)N1CCCCCC1 | –

SMILES | logD (pH 5.0) | other results
O=P(OCC(F)(F)F)(OCC(F)(F)F)N1CCOCC1 | 2.69 | –
